Columns and labels:
[1] = tested on: osteoclasts; assay: Differentiation and formation of osteoclasts from bone marrow macrophages (TRAP assay); type: cell-based, ICR mouse; conditions: BMM cells
Source text: Osteoclasts are known to directly affect bone resorption, and the differentiation and formation of osteoclasts play a very important role in osteoporosis. In order to examine the effect of the ethanol extract of Salvia plebeia R. Br. on the differentiation and formation of osteoclasts, the differentiation from bone marrow cells isolated from the femur of an ICR mouse into osteoclasts was observed.
Bone marrow cells were separated from the femur of a three- to six-week old ICR mouse, and the separated cells were treated with M-CSF (30 ng/ml) for 3 days, thereby inducing their differentiation into bone marrow macrophage (BMM). Then, the BMM was treated with M-CSF (30 ng/ml) and RANKL (100 ng/ml) for 4 days, thereby inducing them to be differentiated into osteoclasts. […] Then, the differentiation and formation of osteoclasts were confirmed by TRAP assay.

[2] = tested on: mouse model with osteoporosis induced by ovariectomy; assay: Mouse model with osteoporosis induced by ovariectomy (DEXA, micro CT); type: in vivo, C57BL/6 mouse; conditions: compared to PBS after ovariectomy, oral, five weeks
Source text: Test groups were divided into a sham group (only surgery without ovary removal) and a group treated with ovariectomy (OVX). In the OVX group, the ovaries of an eight-week old female C57BL/6 mouse were removed by surgery and the mouse was bred for 6 weeks to induce osteoporosis. […] The sample was used after dissolving in PBS. Furthermore, the sham group was orally administered with PBS for five weeks.
Upon termination of five weeks' oral administration, the Bone Mineral Density (BMD) and Bone Mineral Content (BMC) of the mouse were measured using an osteoporosis analyzing device Dual-Energy X-ray Absorptiometry (DEXA; bone mineral density analyzer), and the results are shown in FIG. 21a-21d.
Upon termination of five weeks' oral administration, the mice of each experimental group were sacrificed, and the bones adjacent to tibia were separated. The bones were then photographed to obtain their 3-dimensional structures and cross-sections via micro CT, and the microstructures and volume of the bones and trabecular thickness were measured.

## NCCCC(O)(P(=O)(O)O)P(=O)(O)O [alendronate]
[1]; 10 μM
  differentiation of osteoclasts: differentiation of osteoclasts was observed
[1]; 30 and 60 μM
  formation of osteoclasts: osteoclasts were not formed due to toxicity
[2]
  Bone Mineral Content (BMC): significant increase

Source: US20150174186A1, “PHARMACEUTICAL COMPOSITION FOR PREVENTING OR TREATING STAT3-MEDIATED DISEASE, COMPRISING SALVIA PLEBEIA R. BR. EXTRACT OR FRACTION THEREOF AS ACTIVE INGREDIENT” (Korea Research Institute of Bioscience and Biotechnology, priority 2012, published 2015)
